Four molecules from US12252524B2, “GIP/GLP1 co-agonist compounds” (Eli Lilly and Company, priority 2018, dated 2025) can be followed below.

SMILES strings stand for the structures. Numbered stars: 1 amine (or outer) side, 2 acyl side, 3 side chain; on linkers, the order of the positions; unused ones are H or OH. Square brackets hold non-standard residues; d marks the D form. Side chains are listed from the residue outwards. Peptide text beside a SMILES is read from it. * marks the point of attachment. C20 diacid = O=C(O)CCCCCCCCCCCCCCCCCCC(=O)*; C18 diacid = O=C(O)CCCCCCCCCCCCCCCCC(=O)*; αMePhe(2-F) = C[C@](N)(Cc1ccccc1F)C(=O)O; γGlu = O=C(O)[C@H](CCC(=O)[*:2])N[*:1]; αMeY = C[C@](N)(Cc1ccc(O)cc1)C(=O)O; αMeL = CC(C)C[C@](C)(N)C(=O)O; Orn = NCCC[C@H](N)C(=O)O; AEEA = NCCOCCOCC(=O)O; Aib = CC(C)(N)C(=O)O

For test [1], the target named is T1, human GLP-1R (Homo sapiens, UniProt P43220). The test is described as follows: GLP-1R HEK293 cell membrane [35S]GTPγS binding assay. It is filed as biochemical. More on the design: expressed in transfected cells; host or cells: HEK293 cells expressing human GLP-1R; membranes. The following applies: HEK293 cell membranes expressing human GLP-1R, [35S]GTPγS binding; read-out: hGLP1R GTPgS Rel EC50 nM (SEM, n). An outline of the steps:
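Agonist-driven Gαs activation read as [35S]GTPγS ([…]) binding to receptor-expressing HEK293 membranes, 30 min at room temperature, pH 7.4. Detection by anti-Gαs immunocapture on scintillation beads; EC50 derived from four-parameter logistic concentration-response fit.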
(Binding of GTPγS marks nucleotide exchange on a G protein.)

In test [2] the target is human GLP-1 receptor (GLP-1R) (Homo sapiens, UniProt P43220). The test is described as follows: cAMP pharmacological functional assay in presence of casein, hGLP-1R. The following applies: HEK293 cells expressing hGLP-1R, 0.1% Casein, geometric mean; read-out: hGLP1R cAMP Rel EC50 nM (SEM, n). Type of test: cell-based.
Test [3] deals with T1, human GLP-1R. The test is described as follows: [125I]-GLP-1 binding (SPA), human GLP-1 receptor. More on the design: expressed in transfected cells; crude membranes. The settings on record: read-out: hGLP1R Ki, (nM) (SEM, n). An outline of the steps:
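Frozen cell pellets are lysed on ice in hypotonic Tris buffer, pH 7.5, homogenized, and centrifuged to a membrane pellet resuspended at about 1 to 3 mg/mL. Binding is then measured in HEPES-based buffer at pH 7.4, and curves are fitted to give IC50 and Ki.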

Test [4] concerns the target T2, human Gcg receptor (Homo sapiens, UniProt P47871).
T2 construct: expressed in transfected cells; crude membranes
The test is described as follows: [125I]-Glucagon binding (SPA), human Gcg receptor. The following applies: read-out: hGLcgR Ki, nM (SEM, n). An outline of the steps:
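Crude membranes from cells expressing the receptor, prepared by hypotonic lysis in 50 mM Tris HCl pH 7.5 with protease inhibitors, homogenization and differential centrifugation, were used in a WGA-bead SPA. Binding buffer: 25 mM HEPES pH 7.4, 2.5 mM CaCl2, 1 mM MgCl2, bacitracin, Tween-20.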

In test [5] the target is T3, human GIP receptor (Homo sapiens, UniProt P48546).
T3 construct: expressed in transfected cells; crude membranes
T3 sequence (P48546 22-466): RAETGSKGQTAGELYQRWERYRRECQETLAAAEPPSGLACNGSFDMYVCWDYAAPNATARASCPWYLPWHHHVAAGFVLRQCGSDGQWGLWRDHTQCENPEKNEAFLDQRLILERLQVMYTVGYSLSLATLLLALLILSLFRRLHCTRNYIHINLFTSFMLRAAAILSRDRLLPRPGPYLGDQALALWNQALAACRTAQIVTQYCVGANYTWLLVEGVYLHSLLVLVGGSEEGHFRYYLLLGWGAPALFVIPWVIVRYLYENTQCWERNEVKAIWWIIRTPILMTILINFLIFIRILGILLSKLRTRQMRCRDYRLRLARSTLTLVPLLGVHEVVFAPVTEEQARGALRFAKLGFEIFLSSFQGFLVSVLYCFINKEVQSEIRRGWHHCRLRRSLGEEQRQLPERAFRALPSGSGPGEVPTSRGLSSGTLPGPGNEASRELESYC
The test is described as follows: [125I]-GIP binding (SPA), human GIP receptor. The settings on record: read-out: hGIPR Ki, nM (SEM, n).

For test [6], the target named is T1, human GLP-1R. The test is described as follows: GLP-1R CHO cell β-arrestin recruitment assay. More on the design: host or cells: CHO-K1 PathHunter cells, assay-ready frozen. It is filed as cell-based. The settings on record: for EC50: CHO-K1 cells; for hGLP1R B-Arrestin2 % Top: normalized to GLP-1 maximum control. An outline of the steps:
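Peptide-induced β-arrestin-2 recruitment measured by enzyme-fragment complementation luminescence after 90 min at 37 °C plus 60 min detection at RT.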

Test [7] has as its target T4, gastric inhibitory peptide receptor (GIPR) (Homo sapiens, UniProt P48546).
T4 sequence (P48546 22-466): T3 sequence (P48546 22-466)
The test is described as follows: cAMP pharmacological functional assay in presence of casein, hGIPR. It is filed as cell-based. The following applies: HEK293 cells expressing hGIPR, 0.1% Casein, geometric mean; read-out: hGIPR cAMP Rel EC50 nM (SEM, n).

[8] abbreviates: PathHunter β-arrestin-2 recruitment, 0.1% casein, read-out: hGLP1R B-Arrestin2 Rel EC50 uM (SEM, n).

T2 sequence (P47871 26-477): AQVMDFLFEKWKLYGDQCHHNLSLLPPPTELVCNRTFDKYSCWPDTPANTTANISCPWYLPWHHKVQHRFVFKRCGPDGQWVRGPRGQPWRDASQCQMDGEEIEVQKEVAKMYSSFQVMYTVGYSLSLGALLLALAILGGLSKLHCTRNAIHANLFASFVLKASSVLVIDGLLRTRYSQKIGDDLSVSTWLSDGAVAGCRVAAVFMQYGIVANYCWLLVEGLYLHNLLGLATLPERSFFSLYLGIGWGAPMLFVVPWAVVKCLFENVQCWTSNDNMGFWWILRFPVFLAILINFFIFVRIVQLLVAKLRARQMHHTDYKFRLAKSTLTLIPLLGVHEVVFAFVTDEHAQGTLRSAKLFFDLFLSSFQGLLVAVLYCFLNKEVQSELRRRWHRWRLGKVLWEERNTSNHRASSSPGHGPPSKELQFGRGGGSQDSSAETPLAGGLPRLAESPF
T1 sequence (P43220 24-463): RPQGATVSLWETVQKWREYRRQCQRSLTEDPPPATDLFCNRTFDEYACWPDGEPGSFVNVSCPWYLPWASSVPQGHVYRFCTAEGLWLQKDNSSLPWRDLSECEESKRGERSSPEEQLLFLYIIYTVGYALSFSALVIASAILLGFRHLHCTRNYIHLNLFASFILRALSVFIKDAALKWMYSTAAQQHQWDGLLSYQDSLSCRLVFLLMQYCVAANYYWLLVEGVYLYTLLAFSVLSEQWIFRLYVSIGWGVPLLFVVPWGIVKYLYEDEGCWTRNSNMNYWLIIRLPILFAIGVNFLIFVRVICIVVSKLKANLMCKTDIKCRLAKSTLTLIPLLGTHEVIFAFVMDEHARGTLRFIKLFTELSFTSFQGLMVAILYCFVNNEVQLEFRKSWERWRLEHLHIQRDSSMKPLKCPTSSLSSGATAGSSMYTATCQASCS
Chain of human GLP-1 receptor (GLP-1R) (P43220 24-463): as above

Usually EC50 stands for the concentration needed to bring the measured effect to its halfway point. As usually defined, the Ki is a measure of affinity in units of concentration, obtained from inhibition or displacement. Regarding `CC[C@H](C)[C@H](NC(=O)[C@H](CC(C)C)NC(=O)[C@H](Cc1ccc(O)cc1)NC(=O)[C@@H](CCC(=O)O)NC(=O)[C@@H](NC(=O)[C@H](Cc1ccccc1)NC(=O)[C@H](C)NC(=O)C(C)(C)NC(=O)[C@H](CCC(N)=O)NC(=O)[C@H](C)NC(=O)[C@H](CCCCNC(=O)COCCOCCNC(=O)COCCOCCNC(=O)CC[C@H](NC(=O)CCCCCCCCCCCCCCCCCCC(=O)O)C(=O)O)NC(=O)[C@H](CCCN)NC(=O)[C@H](CC(=O)O)NC(=O)[C@H](CC(C)C)NC(=O)[C@](C)(CC(C)C)NC(=O)[C@@H](NC(=O)[C@H](CO)NC(=O)[C@H](Cc1ccc(O)cc1)NC(=O)[C@H](CC(=O)O)NC(=O)[C@H](CO)NC(=O)[C@@H](NC(=O)[C@H](Cc1ccccc1)NC(=O)[C@@H](NC(=O)CNC(=O)[C@H](CCC(=O)O)NC(=O)C(C)(C)NC(=O)[C@H](N)Cc1ccc(O)cc1)[C@@H](C)O)[C@@H](C)O)[C@@H](C)CC)[C@@H](C)CC)C(=O)N[C@@H](C)C(=O)NCC(=O)NCC(=O)N1CCC[C@H]1C(=O)N[C@@H](CO)C(=O)N[C@@H](CO)C(=O)NCC(=O)N[C@@H](C)C(=O)N1CCC[C@H]1C(=O)N1CCC[C@H]1C(=O)N1CCC[C@H]1C(=O)N[C@@H](CO)C(N)=O` [Example 291] (H-[dY][Aib]EGTFTSDYSI[αMeL]LD[Orn]K([AEEA-AEEA-γGlu-C20 diacid])AQ[Aib]AFI[dE]YLIAGGPSSGAPPPS-NH2), the EC50 in test [1] is 0.466 nM; in test [2], 0.15 nM; in test [6] (0.1% w/v hydrolyzed Casein, read-out: hGLP1R B-Arrestin2 Rel EC50) it was > 10 µM; in test [6] (setting [8]), > 10 µM; in test [7], 0.118 nM. Moreover, the Ki in test [3] is 3.16 nM; in test [4] it was > 872 nM; in test [5] it was 0.129 nM.

Take `CC[C@H](C)[C@H](NC(=O)[C@H](CC(C)C)NC(=O)[C@](C)(Cc1ccc(O)cc1)NC(=O)[C@H](CCC(=O)O)NC(=O)[C@@H](NC(=O)[C@H](Cc1ccccc1)NC(=O)[C@H](CCC(=O)O)NC(=O)C(C)(C)NC(=O)[C@H](CCC(N)=O)NC(=O)[C@H](C)NC(=O)[C@H](CCCCNC(=O)COCCOCCNC(=O)COCCOCCNC(=O)CC[C@H](NC(=O)CCCCCCCCCCCCCCCCCCC(=O)O)C(=O)O)NC(=O)[C@H](CCCCN)NC(=O)[C@H](CC(=O)O)NC(=O)[C@H](CC(C)C)NC(=O)[C@](C)(CC(C)C)NC(=O)[C@@H](NC(=O)[C@H](CO)NC(=O)[C@H](Cc1ccc(O)cc1)NC(=O)[C@H](CC(=O)O)NC(=O)[C@H](CO)NC(=O)[C@@H](NC(=O)[C@H](Cc1ccccc1)NC(=O)[C@@H](NC(=O)CNC(=O)[C@H](CCC(=O)O)NC(=O)C(C)(C)NC(=O)[C@H](N)Cc1ccc(O)cc1)[C@@H](C)O)[C@@H](C)O)[C@@H](C)CC)[C@@H](C)CC)C(=O)N[C@@H](C)C(=O)NCC(=O)NCC(=O)N1CCC[C@H]1C(=O)N[C@@H](CO)C(=O)N[C@@H](CO)C(=O)NCC(=O)N[C@@H](C)C(=O)N1CCC[C@H]1C(=O)N1CCC[C@H]1C(=O)N1CCC[C@H]1C(=O)N[C@@H](CO)C(N)=O` [Example 292] (H-[dY][Aib]EGTFTSDYSI[αMeL]LDKK([AEEA-AEEA-γGlu-C20 diacid])AQ[Aib]EFIE[αMeY]LIAGGPSSGAPPPS-NH2; N-terminus assumed): the EC50 in test [1] was determined as 0.429 nM; in test [2], 0.183 nM; in test [6] (setting [8]), 0.00774 µM; in test [7], 0.0682 nM. Besides, the inhibition constant (Ki) in test [3] was found to be 1.19 nM; in test [4], 595 nM; in test [5], 0.0547 nM. Also, the “hGLP1R B-Arrestin2 % Top” value in test [6] stood at 29.0%.

In the case of `CC[C@H](C)[C@H](NC(=O)[C@H](CC(C)C)NC(=O)[C@](C)(Cc1ccc(O)cc1)NC(=O)[C@H](CCC(=O)O)NC(=O)[C@@H](NC(=O)[C@H](Cc1ccccc1)NC(=O)[C@H](CCC(=O)O)NC(=O)C(C)(C)NC(=O)[C@H](CCC(N)=O)NC(=O)[C@H](C)NC(=O)[C@H](CCCCNC(=O)COCCOCCNC(=O)COCCOCCNC(=O)CC[C@H](NC(=O)CCCCCCCCCCCCCCCCCCC(=O)O)C(=O)O)NC(=O)[C@H](CCCN)NC(=O)[C@H](CC(=O)O)NC(=O)[C@H](CC(C)C)NC(=O)[C@](C)(CC(C)C)NC(=O)[C@@H](NC(=O)[C@H](CO)NC(=O)[C@H](Cc1ccc(O)cc1)NC(=O)[C@H](CC(=O)O)NC(=O)[C@H](CO)NC(=O)[C@@H](NC(=O)[C@H](Cc1ccccc1)NC(=O)[C@@H](NC(=O)CNC(=O)[C@H](CCC(=O)O)NC(=O)C(C)(C)NC(=O)[C@H](N)Cc1ccc(O)cc1)[C@@H](C)O)[C@@H](C)O)[C@@H](C)CC)[C@@H](C)CC)C(=O)N[C@@H](C)C(=O)NCC(=O)NCC(=O)N1CCC[C@H]1C(=O)N[C@@H](CO)C(=O)N[C@@H](CO)C(=O)NCC(=O)N[C@@H](C)C(=O)N1CCC[C@H]1C(=O)N1CCC[C@H]1C(=O)N1CCC[C@H]1C(=O)N[C@@H](CO)C(N)=O` [Example 293], the EC50 is 0.368 nM in test [1], 0.132 nM in test [2], 0.00719 µM in test [6] (setting [8]) and 0.0562 nM in test [7]. In addition, the Ki in test [3] came to 1.64 nM; in test [4] it was 668 nM; in test [5] it was 0.0775 nM. Moreover, in test [6], the “hGLP1R B-Arrestin2 % Top” value stood at 29.5%.

For `CC[C@H](C)[C@H](NC(=O)[C@H](CC(C)C)NC(=O)[C@H](Cc1ccc(O)cc1)NC(=O)[C@H](CCC(=O)O)NC(=O)[C@@H](NC(=O)[C@H](Cc1ccccc1)NC(=O)[C@H](C)NC(=O)C(C)(C)NC(=O)[C@H](CCC(N)=O)NC(=O)[C@H](C)NC(=O)[C@H](CCCCNC(=O)COCCOCCNC(=O)COCCOCCNC(=O)CC[C@H](NC(=O)CCCCCCCCCCCCCCCCC(=O)O)C(=O)O)NC(=O)[C@H](CCCCN)NC(=O)[C@H](CC(=O)O)NC(=O)[C@H](CC(C)C)NC(=O)[C@H](CC(C)C)NC(=O)[C@@H](NC(=O)[C@H](CO)NC(=O)[C@H](Cc1ccc(O)cc1)NC(=O)[C@H](CC(=O)O)NC(=O)[C@H](CO)NC(=O)[C@@H](NC(=O)[C@](C)(Cc1ccccc1F)NC(=O)[C@@H](NC(=O)CNC(=O)[C@H](CCC(=O)O)NC(=O)C(C)(C)NC(=O)[C@@H](N)Cc1ccc(O)cc1)[C@@H](C)O)[C@@H](C)O)[C@@H](C)CC)[C@@H](C)CC)C(=O)N[C@@H](CCC(=O)O)C(=O)NCC(=O)NCC(=O)N1CCC[C@H]1C(=O)N[C@@H](CO)C(=O)N[C@@H](CO)C(=O)NCC(N)=O` [Example 302] (H-Y[Aib]EGT[αMePhe(2-F)]TSDYSILLDKK([AEEA-AEEA-γGlu-C18 diacid])AQ[Aib]AFIEYLIEGGPSSG-NH2), the EC50 was 0.268 nM in test [1], 0.0275 nM in test [2], 0.00219 µM in test [6] (setting [8]) and 0.0308 nM in test [7]. Also, the inhibition constant (Ki) in test [3] amounted to 0.617 nM; in test [4], 18.5 nM; in test [5], 0.0289 nM. Also, in test [6], the “hGLP1R B-Arrestin2 % Top” value is reported as 98.4%.
